Molecular target: ATP-dependent translocase ABCB1 (Mus musculus, UniProt P21447)
Assay: TP_TRANSPORTER: transepithelial transport (basal to apical) in Mdr1a-expressing LLC-PK1 cells
Type: functional, cell-based
Settings: pig

Sequence of ATP-dependent translocase ABCB1 (P21447 whole entry): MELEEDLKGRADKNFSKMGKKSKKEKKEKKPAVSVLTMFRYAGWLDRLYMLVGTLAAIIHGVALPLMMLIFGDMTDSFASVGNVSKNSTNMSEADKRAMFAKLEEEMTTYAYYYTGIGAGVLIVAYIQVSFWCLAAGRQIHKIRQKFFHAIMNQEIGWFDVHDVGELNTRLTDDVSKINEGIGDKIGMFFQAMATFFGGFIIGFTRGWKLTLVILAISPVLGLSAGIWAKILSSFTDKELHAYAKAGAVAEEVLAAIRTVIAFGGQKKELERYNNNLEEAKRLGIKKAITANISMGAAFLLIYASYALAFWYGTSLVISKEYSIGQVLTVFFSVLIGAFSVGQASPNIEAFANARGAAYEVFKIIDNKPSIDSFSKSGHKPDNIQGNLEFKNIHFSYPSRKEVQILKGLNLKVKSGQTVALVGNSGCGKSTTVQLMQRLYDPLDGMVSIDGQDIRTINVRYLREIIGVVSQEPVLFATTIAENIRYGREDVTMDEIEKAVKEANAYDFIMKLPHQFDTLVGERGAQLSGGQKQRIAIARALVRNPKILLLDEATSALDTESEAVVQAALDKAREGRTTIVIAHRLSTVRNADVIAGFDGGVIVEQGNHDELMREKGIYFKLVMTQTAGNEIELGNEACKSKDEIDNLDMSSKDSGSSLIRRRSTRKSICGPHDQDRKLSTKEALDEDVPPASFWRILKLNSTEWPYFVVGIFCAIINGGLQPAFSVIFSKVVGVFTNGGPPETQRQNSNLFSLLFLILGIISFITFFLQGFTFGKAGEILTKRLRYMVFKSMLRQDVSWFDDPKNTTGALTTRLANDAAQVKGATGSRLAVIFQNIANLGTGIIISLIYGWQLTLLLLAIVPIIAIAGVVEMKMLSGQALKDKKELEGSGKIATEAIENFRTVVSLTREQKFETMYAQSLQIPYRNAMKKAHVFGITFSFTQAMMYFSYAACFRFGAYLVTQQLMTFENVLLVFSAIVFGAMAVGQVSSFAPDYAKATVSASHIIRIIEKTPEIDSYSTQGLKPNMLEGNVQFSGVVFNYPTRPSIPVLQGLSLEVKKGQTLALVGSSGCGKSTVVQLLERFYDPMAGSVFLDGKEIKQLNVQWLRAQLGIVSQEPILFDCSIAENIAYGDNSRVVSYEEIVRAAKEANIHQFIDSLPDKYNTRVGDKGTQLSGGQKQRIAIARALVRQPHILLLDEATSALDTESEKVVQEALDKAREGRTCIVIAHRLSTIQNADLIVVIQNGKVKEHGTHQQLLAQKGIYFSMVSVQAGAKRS

Structure (SMILES)	Activity
CCc1c2c(nc3ccc(OC(=O)N4CCC(N5CCCCC5)CC4)cc13)-c1cc([C@@](O)(CC)C(=O)O)c(CO)c(=O)n1C2	substrate [+]
CCc1c2c(nc3ccc(O)cc13)-c1cc([C@@](O)(CC)C(=O)O)c(CO)c(=O)n1C2	substrate [+]
CCc1c2c(nc3ccc(OC[C@@H]4O[C@H](C(=O)O)[C@@H](O)[C@H](O)[C@H]4O)cc13)-c1cc3c(c(=O)n1C2)COC(=O)[C@]3(O)CC	substrate [+]
CCc1c2c(nc3ccc(OC(=O)N4CCC(N5CCCCC5)CC4)cc13)-c1cc3c(c(=O)n1C2)COC(=O)[C@]3(O)CC [IRINOTECAN]	substrate [+]
